According to patent publication US10526322B2, “Inhibitors of kidney-type glutaminase, GLS-1” (CORNELL UNIVERSITY, priority 2014, dated 2020):

Legend:
[1] = biological target: T1, 488-GAC and QSY9-GAC (Mus musculus, UniProt D3Z7P3); assay: FRET assay for GAC tetramer formation; format: binding; settings: 25 nM 488-GAC and 25 nM QSY9-GAC
T1 construct: (residues 72-603) was cloned into a pET23a vector; His-tag with thrombin cleavage site (N, cleaved yes); made in house
T1 sequence (D3Z7P3 72-603 isoform D3Z7P3-2): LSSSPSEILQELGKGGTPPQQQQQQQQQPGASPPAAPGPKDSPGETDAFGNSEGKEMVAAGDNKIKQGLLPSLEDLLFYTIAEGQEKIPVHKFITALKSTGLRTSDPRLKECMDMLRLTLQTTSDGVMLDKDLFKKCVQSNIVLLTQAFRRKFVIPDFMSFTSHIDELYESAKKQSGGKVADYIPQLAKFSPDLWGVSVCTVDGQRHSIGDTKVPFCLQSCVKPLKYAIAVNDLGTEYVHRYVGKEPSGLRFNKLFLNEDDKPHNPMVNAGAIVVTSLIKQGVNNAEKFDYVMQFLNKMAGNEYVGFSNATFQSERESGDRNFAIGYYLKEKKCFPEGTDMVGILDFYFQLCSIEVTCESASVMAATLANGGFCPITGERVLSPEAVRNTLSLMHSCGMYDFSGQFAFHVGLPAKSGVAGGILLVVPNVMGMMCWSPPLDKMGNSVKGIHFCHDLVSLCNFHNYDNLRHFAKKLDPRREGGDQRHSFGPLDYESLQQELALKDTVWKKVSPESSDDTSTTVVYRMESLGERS
Experimental: Fluorescence experiments were performed using a Varian Cary Eclipse Fluorometer in the counting mode. Excitation and emission wavelengths were 490 and 520 nm, respectively. Experiments were all performed using 1-mL samples with continuous stirring at 20° C. in 50 mM Tris-Acetate, pH 8.5, 0.1 mM ethylenediamine tetraacetic acid (EDTA). For wild-type (WT) GAC titrations in the absence of inorganic phosphate, 25 nM 488-GAC was equilibrated with 25 μL of QSY9-GAC (at varying concentrations) and allowed to equilibrate for 10 minutes, at which point 75 μL of the appropriate concentration of unlabeled WT GAC was added to provide a 10-fold excess over labeled-GAC. To test whether the purified GAC mutants can form oligomers with WT GAC, 200 nM QSY9-GAC (D391K) or 200 nM QSY9-GAC (D391K, K316E, R459E) was added to an equilibrated sample of 20 nM 488-WT GAC. When assaying the effects of BPTES and 968 on oligomer formation, BPTES or 968 was added following equilibration of a sample of 25 nM QSY9-WT GAC and 25 nM 488-WT GAC. Both BPTES and 968 were prepared in DMSO, and appropriate dilutions were made so that less than 2% (v/v) DMSO was added to an experimental sample.

[2] = biological target: T2, 488-GAC (mouse kidney-type glutaminase isoform 2, GAC) (Mus musculus, UniProt D3Z7P3); assay: Real-time binding assay, quenching of 488-GAC fluorescence; settings: 10 nM 488-GAC, 10 μM BPTES
T2 construct: (residues 72-603) was cloned into a pET23a vector; His-tag with thrombin cleavage site (N, cleaved yes); made in house
T2 sequence (D3Z7P3 72-603 isoform D3Z7P3-2): T1 sequence (D3Z7P3 72-603 isoform D3Z7P3-2)
Experimental: A plasmid encoding the mouse kidney-type glutaminase isoform 2 (GAC, GenBank Accession No. NP_001106854.1, which is hereby incorporated by reference in its entirety) (residues 72-603) was cloned into a pET23a vector containing an N-terminal histidine (His)-tag and thrombin cleavage site. The expressed protein was purified using Co^2+ affinity beads (Clontech), followed by His-tag cleavage with human thrombin (Haemetologic Technologies) overnight at 4° C., and subsequently purified by anion exchange (GE healthcare) and gel filtration chromatography. […] The stoichiometry of labeling was determined using the probe manufacturer's reported molar absorptivity values and instructions. Briefly, the concentration of GAC was determined by first correcting absorbance at 280 nm (Abs280) for each probe, using the reported correction values (0.11 for AlexaFluor 488 and 0.23 for QSY-9) and their absorbance values at their absorbance maxima (495 nm and 562 nm, respectively). The corrected Abs280 was used along with the experimentally determined molar absorptivity of GAC (ε280=38,850 M−1 cm−1). AlexaFluor 488 and QSY-9 probes were quantified using their respective absorbance maxima and the manufacturer's reported molar absorptivity values (ε495=71,000 M−1 cm−1 and ε562=85,000 M−1 cm−1). […]

[3] = biological target: T3, GAC (Mus musculus, UniProt D3Z7P3); assay: Real-time GAC enzyme activity assay coupled to glutamate dehydrogenase (NADH fluorescence); format: biochemical; settings: for concentration inhibiting the GAC isoform compared with parent compound 968: in vitro inhibition, FIG. 9 / FIG. 11
T3 construct: (residues 72-603) was cloned into a pET23a vector; His-tag with thrombin cleavage site (N, cleaved yes); made in house
T3 sequence (D3Z7P3 72-603 isoform D3Z7P3-2): T1 sequence (D3Z7P3 72-603 isoform D3Z7P3-2)
Experimental: A plasmid encoding the mouse kidney-type glutaminase isoform 2 (GAC, GenBank Accession No. NP_001106854.1, which is hereby incorporated by reference in its entirety) (residues 72-603) was cloned into a pET23a vector containing an N-terminal histidine (His)-tag and thrombin cleavage site. The expressed protein was purified using Co^2+ affinity beads (Clontech), followed by His-tag cleavage with human thrombin (Haemetologic Technologies) overnight at 4° C., and subsequently purified by anion exchange (GE healthcare) and gel filtration chromatography. Purified GAC was stored in a high salt-containing buffer (20 mM Tris-HCl pH 8.5, 500 mM NaCl, 1 mM NaN3) at −80° C., following snap freezing in liquid N2 for long term use. Labeling recombinant GAC with small molecule probes was performed by exchanging 1.5 mg of enzyme into 50 mM HEPES, pH 7.2, and 100 mM NaCl (labeling buffer), using a PD10 desalting column (GE healthcare). The enzyme was then incubated with 50 μM (5-fold excess of enzyme) of either AlexaFluor 488 succinimidyl ester or QSY9 succinimidyl ester (Molecular Probes) for 1 hour at 4° C. After 1 hour, the labeling reaction was quenched with 150 mM Tris-HCl, pH 8.5, and unreacted probe was separated from labeled-enzyme using a PD10 desalting column, eluting labeled-GAC back into the high salt-containing buffer. The stoichiometry of labeling was determined using the probe manufacturer's reported molar absorptivity values and instructions. Briefly, the concentration of GAC was determined by first correcting absorbance at 280 nm (Abs280) for each probe, using the reported correction values (0.11 for AlexaFluor 488 and 0.23 for QSY-9) and their absorbance values at their absorbance maxima (495 nm and 562 nm, respectively). The corrected Abs280 was used along with the experimentally determined molar absorptivity of GAC (ε280=38,850 M−1 cm−1). AlexaFluor 488 and QSY-9 probes were quantified using their respective absorbance maxima and the manufacturer's reported molar absorptivity values (ε495=71,000 M−1 cm−1 and ε562=85,000 M−1 cm−1).
Real-time fluorescence monitoring of 968 binding and GAC activity through production of NADH was performed on a Varian Cary Eclipse Fluorometer, whereas small molecule inhibition and binding titrations were performed in a 96-well format in a Tecan Saphire absorbance and fluorescence plate reader. Samples for monitoring real-time binding of 968 to 488-GAC were prepared by adding 10 μL of varying concentrations of 968 prepared in DMSO to an equilibrated 1 mL sample of 10 nM 488-GAC, while observing 488 fluorescence (490 nm excitation/520 nm emission). Similarly, this method was replicated for monitoring real-time binding of 968 to mutant forms of GAC, namely 488-labeled GAC (GD391K) and 488-GAC (D391K, K316E, R459E). Real-time activity assays monitoring 968 binding and NADH production were prepared in 1 mL samples, where 10 units of glutamate dehydrogenase (Sigma) and 2 mM NAD+ (Sigma) were prepared in 50 mM Tris-Acetate, pH 8.5, 0.1 mM EDTA and equilibrated at 20° C. WT GAC (10 nM) was added and allowed to equilibrate 2 minutes before monitoring the fluorescence emission of 488-GAC (490 nm excitation, 520 nm emission) and NADH (340 nm excitation, 490 nm emission). Appropriate dilutions of 968 or BPTES prepared in DMSO were introduced after 30 seconds and allowed to equilibrate for 2 minutes before a 180 μL solution of K2HPO4 and glutamine was added to make a final concentration of 50 mM K2HPO4 and 20 mM glutamine, to initiate GAC activation. The activity of GAC was measured in a coupled assay, by monitoring the NADH produced by glutamate dehydrogenase, which converts the product of the glutaminase-catalyzed reaction, glutamate, to α-ketoglutarate and ammonia by reducing NAD+ to NADH. […]

SMILES | concentration inhibiting the GAC isoform compared with parent compound 968 [3] | also measured
O=C(Cc1ccccc1)Nc1nnc(CCSCCc2nnc(NC(=O)Cc3ccccc3)s2)s1 [BPTES] |  | effect on GAC tetramer formation (488-GAC emission in mixture with QSY9-GAC) [1]: immediate quenching; effect on 488-GAC fluorescence [2]: does not directly affect; inhibition of GAC activity ([3]; 10 nM 488-GAC, 10 μM BPTES): strongly inhibits
CN(C)c1ccc(C2Nc3c(ccc4ccccc34)C3=C2C(=O)CC(C)(C)C3)cc1Br (centres unmarked) [SU-1] | lower concentration than the parent compound, 968 | 
CN(C)c1ccc(C2Nc3ccc4ccccc4c3C3=C2C(=O)CC(c2ccccc2)C3)cc1Br (centres unmarked) [SU-10] | lower concentration than the parent compound, 968 | 
CN(C)c1ccc(C2Nc3ccc4cc5ccccc5cc4c3C3=C2C(=O)CC(C)(C)C3)cc1Br (centres unmarked) [SU-14] | lower concentration than the parent compound, 968 | 
CC1(C)CC(=O)C2=C(C1)c1cc(-c3ccccc3)ccc1NC2c1ccc(-c2ccccc2)cc1 (centres unmarked) [SU-15] | lower concentration than the parent compound, 968 | 
CN(C)c1ccc(CNc2cccc3ccccc23)cc1Br [SU-20] | lower concentration than the parent compound, 968 | 
CC1(C)CC(=O)C2=C(C1)c1c(ccc3cc4ccccc4cc13)NC2c1ccc(C2(C(F)(F)F)N=N2)cc1 (centres unmarked) [SU-24] | lower concentration than the parent compound, 968 | 
[O-][NH2+]c1cc(CNc2ccc3ccccc3c2)ccc1N1CCCC1 [SU-29] | lower concentration than the parent compound, 968 | 
CCN(CC)c1ccc(CNc2ccc3ccccc3c2)cc1[NH2+][O-] [SU-31] | lower concentration than the parent compound, 968 | 
